According to patent US6656921B1, “Use of zinc hyaluronate against peptic ulcer” (Richter Gedeon Vegyeszeti Gyar RT., priority 1997, dated 2003):
Marks after values point to notes of the source that are not given here.

Tests used:
Assay type in all cases: in vivo, rat
[1] = test system: acetic acid induced chronic gastric ulcer; test: Inhibition of acetic acid induced chronic gastric ulcer; conditions: for Ulcerated area mm^2 ± S.E.M.: 1.0 mg/kg p.o. once a day, day 5 to 14 after surgery; for Effect on healing of acetic acid induced chronic ulcer (in words): rat, in vivo
Experimental: Female, RG Wistar rats weighing between 120-150 g were used. Before the surgery animals were deprived of food for 24 hours but received water ad libitum. The chronic gastric ulcer was induced by the injection of 25 μl/animal of 20% (v/v) acetic acid into the gastric wall under light ether anaesthesia according to the method similar to that described by Takagi et al. (1969). The oral treatment with the test compounds was started five days after the surgery and continued in a once-a-day regimen up to the 14th day. The animals were killed on the 15th day and their stomachs were dissected. The severity of ulceration was evaluated by the measurement of the diameter of the ulcers and the area affected was calculated. The healing effect was expressed as differences in percentage between the control and test group values.

[2] = test system: acidified ethanol induced gastric lesion; test: Inhibition of acidified-ethanol induced gastric lesions; conditions: for Inhibition / Lesion length/stomach / Lesion length/stomach mm ± S.E.M.: 30 min before acidified ethanol; for ED50 (dose giving 50% decrease in ulcer index): p.o., 30 min pretreatment
Experimental: Female RG-Wistar rats weighing between 120-150 g were used. Before experiments animals were fasted for 24 hours but received water ad libitum.
Experiments were carried out according to the technique similar to that described by A. Robert [Gastroenterology 77, […] (1979)].
Acidified ethanol (mixture of 50 ml of abs. ethanol and 1 ml of concentrated HCI) was used as strong irritants. Dose of acidified ethanol was 0.5 ml/100 g body weight with intragastric administration. Test compounds were given orally 30 minutes before the acidified ethanol challenge. When the duration of action of test compound was studied test material was administered 60 or 120 minutes earlier to the irritating effect induced by acidified-ethanol effect. One hour after the acidified ethanol treatment rats were sacrificed by cervical dislocation. Stomachs were removed and opened along the greater curvature and mildly washed down. The longitudinal hemorrhagic lesions were assayed by length.
ED50 value was defined as the dose that gave a 50% decrease in ulcer index.

[3] = test system: indomethacin induced gastric lesion; test: Inhibition of indomethacin induced gastric lesion; conditions: for Protection of gastric mucosa against indomethacin (in words): rat, in vivo
Experimental: 2. Inhibition of Indomethacin Induced Gastric Lesion Female RG Wistar rats weighing between 120-150 g were used. Before the experiments animals were fasted for 24 hours but received water ad libitum. Test compounds were given orally, 30 minutes later the animals were treated subcutaneously with indomethacin at a dose of 40 mg/kg. Four hours after the irritating indomethacin administration the animals were killed by cervical dislocation. The stomachs were removed, opened along the greater curvature and the hemorrhagic lesions were counted on the glandular stomach.
ED50 value represents the dose which protects the stomach by 50 % from the damaging effect of indomethacin.

[4] = test system: gastrointestinal motility; test: Gastrointestinal motility in the charcoal propulsion test; conditions: 100 mg/kg p.o.; for Propulsion of charcoal suspension mm ± S.E.M.: 30 min before charcoal, 60 min after charcoal
Experimental: Experiments were performed on female, RG-Wistar rats weighing 120-140 g, which were fasted for 24 hours but received water ad libitum.
The experimental procedure was carried out according to the technique similar to that described of P. A. Janssen and A. J. Jageneau [J. Pharm. Pharmacel. 9, 381 (1957)].
Test compounds were given orally at a dose of 100 mg/kg. Control animals received physiological saline solution instead of test compounds. 30 minutes later, the 5% (w/v) charcoal suspension was administered orally at a volume of 0.5 ml/animal. 60 minutes after the charcoal treatment the animals were sacrificed by cervical dislocation. The intestine from pylorus to cecum was removed, its lengths measured along with the distance traversed by the charcoal meal.
Motility was expressed as the ratio of length of charcoal suspension to the length of the whole intestine.

[5] = test system: stress-induced gastric lesion; test: Inhibition of stress (cold-restraint) induced gastric lesions; conditions: for Lesion score/stomach ± S.E.M.: 30 min before cold-restraint stress, score 0-3; for Inhibition: 30 min before stress; for Protection against cold-restraint induced gastric damage (in words): rat, in vivo
Experimental: Female RG Wistar rats weighing between 120-150 g were used. Before the experiments animals were fasted for 24 hours but received water ad libitum. Experiments were carried out according to the technique similar to that described by Senay et al., (1967). [Proc. Soc. Exp. Biol. Med.124,1221, (1967)].
Test compounds were given orally. 30 minutes later the animals were immobilized in plastic restraint boxes then placed into a refrigerator at 4° C.-8° C. temperature. Four hours later the animals were removed from both the refrigerator and the restraint boxes and one hour later they were sacrificed by cervical dislocation. The stomachs were removed, opened along the greater curvature and hemorrhagic lesions were scored by a zero to 3 scale: stomachs free from any damage were given a score of 0, stomachs with only a few hemorrhagic lesion were given a score of 1, stomachs with more lesion numbers than 10 were given a score of 2, and stomachs with a lot of lesions were characterized with a score of 3.
The ED50 were defined as the dose needed to decrease the score of gastric lesions by 50%.

[6] = test system: platelet activating factor (PAF) induced gastric lesion; test: Inhibition of gastric damage induced by platelet activating factor (PAF)
Experimental: Male, RG-Wistar rats weighing between 200-250 g were used. Before the experiments animals were fasted for 24 hours but received water ad libitum. Experiments were carried out according to the technique similar to that described by Wallace and Whittle (1986). [Br.J.Pharmac., 89,415, (1986)]. Animals were anaesthetized by intraperitoneal administration of urethane at a dose of 1 g/kg in a volume of 10 ml/kg. Femoral vein was then prepared and cannulated for administration of ulcerogenic PAF. After the surgery PAF was infused intravenously at a rate of 0.1 ml/min for ten minutes at a dose of 200 ng/kg/min. Test compounds were given 30 minutes before the PAF challenge. One hour after the infusion of PAF animals were sacrificed by cervical dislocation; their stomachs were removed and opened along the greater curvature. The hemorrhagic erosions were evaluated by a zero to three scoring system.

[7] = test system: acidified ethanol induced gastric damage; test: Effect of L-NAME (endogenous NO) on protection against acidified-ethanol induced gastric damage
Experimental: To study the mechanism of action of the compound to be tested, the involvement of endogenous NO in the development of acidified-ethanol induced gastric damage was also studied by intraperitoneal administration of L-N^G-nitroarginine methyl ester (L-NAME). L-NAME at a dose of 25 mg/kg was injected 15 minutes before the test compound. In subsequent experiments the test compound (p.o.), L-NAME (25 mg/kg i.p.), L-arginine (400 mg/kg i.v.) were administered 30, 45 or 60 minutes before oral administration of acidified-ethanol.
The connection between the cytoprotective effect of zinc hyaluronate and endogenic NO was studied by using an inhibitor of the nitrogen(II) oxide biosynthesis namely, N^G-nitro-L-arginine methyl ester (L-NAME). Considering that zinc hyaluronate(II) and zinc hyaluronate(M) had shown the same activity in acidified ethanol test, the latter was the only one tested in this experiment.

[8] = 1.0 mg/kg p.o., 30 min before indomethacin
[9] = 1.0 mg/kg p.o., 30 min before indomethacin 40 mg/kg s.c.
[10] = 10.0 mg/kg p.o., 30 min before indomethacin
[11] = 10.0 mg/kg p.o., 30 min before indomethacin 40 mg/kg s.c.
[12] = 100 mg/kg p.o., 30 min before indomethacin
[13] = 100 mg/kg p.o., 30 min before indomethacin 40 mg/kg s.c.
[14] = listed as Zink-hyaluronate (III)
[15] = L-NAME + zinc chloride, 25 + 25 mg/kg
[16] = Vehicle + zinc chloride, 0 + 25 mg/kg
[17] = 25 mg/kg p.o., 30 min before indomethacin

| Compound | Ulcerated area mm^2 ± S.E.M. [1] [mm^2] | Effect on healing of acetic acid induced chronic ulcer (in words) [1] | Inhibition ([2]; 10 mg/kg p.o.) [%] | Inhibition ([2]; 50 mg/kg p.o.) [%] | Inhibition ([2]; 100 mg/kg p.o.) [%] | ED50 (dose giving 50% decrease in ulcer index) [2] [mg/kg] | Inhibition [3, 8] [%] | Lesion number/stomach ± S.E.M. [3, 9] | Inhibition [3, 10] [%] | Lesion number/stomach ± S.E.M. [3, 11] | Inhibition [3, 12] [%] | Lesion number/stomach ± S.E.M. [3, 13] | Lesion length/stomach mm ± S.E.M. ([2]; 50 mg/kg p.o.) [mm] | Lesion length/stomach mm ± S.E.M. ([2]; 100 mg/kg p.o.) [mm] | Protection against cold-restraint induced gastric damage (in words) [5] | Protection of gastric mucosa against indomethacin (in words) [3] | further results |
| --- | --- | --- | --- | --- | --- | --- | --- | --- | --- | --- | --- | --- | --- | --- | --- | --- | --- |
| zinc hyaluronate [Zinc hyaluronate (I)] | 10.0 ± 2.3 | Neither zinc hyaluronate(I), nor zinc hyaluronate(III) had any effect | 35.0 | 66.7 | 93.4 | 15.9 | 43.4 | 4.7 ± 2.1 | 55.4 | 3.7 ± 1.9 | 90.4 | 0.8 ± 0.4 |  |  |  |  | Inhibition ([2]; 1 mg/kg p.o.): 0%; Lesion length/stomach ([2]; 1 mg/kg p.o.): 95.3 ± 14.8; Lesion length/stomach ([2]; 10 mg/kg p.o.): 53.6 ± 7.3; Lesion length/stomach ([2]; 50 mg/kg p.o.): 27.4 ± 7.6; Lesion length/stomach ([2]; 100 mg/kg p.o.): 5.4 ± 2.0; Effect on the intestinal motility (in words) [4]: absence of change in activity; Propulsion of charcoal suspension mm ± S.E.M. ([4]; listed as Zink-hyaluronate (I)): 718 ± 5.6 mm; Ratio of charcoal suspension to the whole intestinal part ([4]; listed as Zink-hyaluronate (I)): 0.79 ± 0.07 |
| zinc hyaluronate [Zinc hyaluronate (III)] | 6.8 ± 0.8 | Neither zinc hyaluronate(I), nor zinc hyaluronate(III) had any effect | 0 | 78.5 | 85.7 | 33.2 | 7.6 | 17.0 ± 4.5 | 57.6 | 7.9 ± 2.5 | 83.7 | 3.0 ± 1.4 | 14.9 ± 4.5 | 9.9 ± 3.5 |  |  | Lesion length/stomach mm ± S.E.M. ([2]; 10 mg/kg p.o.): 98.4 ± 12.7 mm; Inhibition ([2]; 25 mg/kg p.o.): 37.0%; Lesion length/stomach mm ± S.E.M. ([2]; 25 mg/kg p.o.): 43.7 ± 7.7 mm; Propulsion of charcoal suspension mm ± S.E.M. [4, 14]: 68 ± 2.5 mm; Ratio of charcoal suspension to the whole intestinal part [4, 14]: 0.89 ± 0.03 |
| sodium hyaluronate [reference compound] |  |  |  | 15.6 | 35.9 |  |  |  |  |  | 36.2 | 14.6 ± 3.3 | 65.7 ± 9.8 | 49.9 ± 6.0 | only slight protective effects | do not provide any effect | Lesion score/stomach ± S.E.M. ([5]; 100 mg/kg p.o.): 0.9 ± 0.2; Inhibition ([5]; 100 mg/kg p.o.): 40.0%; Inhibition ([2]; 100 mg/kg p.o., listed as sodium hyaluronate): 36%; Inhibition ([6]; 100 mg/kg p.o., 30 min before PAF): 0%; Lesion score/stomach ± S.E.M. ([6]; 100 mg/kg p.o., 30 min before PAF infusion, score 0-3): 2.6 ± 0.2^a; Protection against ulcerogenic effect of PAF (in words) ([6]; rat, in vivo): did not show such effect |
| [Cl-].[Cl-].[Zn+2] [Zinc chloride, zinc chloride, reference compound] |  |  |  |  |  |  |  |  |  |  |  |  |  |  | only slight protective effects | do not provide any effect | Effect of L-NAME pretreatment on the gastroprotective activity (in words) ([7]; L-NAME 25 mg/kg): not influenced; Inhibition (compared with the vehicle + vehicle group) [7, 15]: 73.2%; Lesion length/stomach mm ± S.E.M. [7, 15]: 19.9 ± 5.5 mm; Inhibition (compared with the vehicle + vehicle group) [7, 16]: 89.2%; Lesion length/stomach mm ± S.E.M. [7, 16]: 8.0 ± 2.6 mm; Lesion score/stomach ± S.E.M. ([5]; 25 mg/kg p.o.): 0.6 ± 0.2; Inhibition ([5]; 25 mg/kg p.o.): 40.0%; Inhibition ([2]; 3.2 mg/kg p.o.): 43.7%; Lesion length/stomach mm ± S.E.M. ([2]; 3.2 mg/kg p.o.): 29.0 ± 4.0 mm; Inhibition ([2]; 6.4 mg/kg p.o.): 52.0%; Lesion length/stomach mm ± S.E.M. ([2]; 6.4 mg/kg p.o.): 24.7 ± 7.7 mm; Inhibition ([2]; 12.8 mg/kg p.o.): 87.0%; Lesion length/stomach mm ± S.E.M. ([2]; 12.8 mg/kg p.o.): 6.7 ± 1.6 mm; Inhibition [3, 17]: 0%; Lesion number/stomach ± S.E.M. [3, 17]: 15.1 ± 3.7 |
